We go through 29 compounds from patent publication US20240173419A1, “CDK2 DEGRADERS AND USES THEREOF” (Kymera Therapeutics, Inc., priority 2022, published 2024).

The assay addresses T1, CDK2 (Homo sapiens, UniProt P24941).
T1 construct: endogenous in cells; host or cells: MKN1 cells
Description: CDK2 degradation in MKN1 cells (AlphaLISA). The assay is classed as cell-based. Set-up: key to CDK2 degradation 14 h: Mean external-Abs DC50 (nM): A (<100 nM); B (≥100-500 nM); C (>500-1000 nM); D (>1000 nM); E (not achieved). To be noted: for DC50: read-out: CDK2 degradation 14 h: Mean external-Abs DC50. As to the method: Degradation of CDK2 in MKN1 cells was measured using AlphaLISA technology (PerkinElmer ALSU-TCDK2-A10K). MKN1 cells were maintained in RPMI1640 medium containing 10% FBS+1× penn/strep. Cells were seeded in 96-well plates (Corning 3599) at a density of 2e4 cells per well in 80 μL of fresh complete growth medium. Cells were incubated overnight at 37° C., 5% CO2. Compounds were then added to the cell assay plates with a final top concentration of 10 μM in a 1:5 dilution series with a total of 11 doses (0.001 nM-10 μM). The final volume per well was 160 μL and the final DMSO concentration was 0.1%. Additionally, wells containing no cells and only complete growth medium were also maintained on the cell assay plates (‘no cell’ wells) and processed along with experimental wells. After 14 hour-incubation at 37° C., 5% CO2, the medium was removed and the cells were washed once with 100 μL of 1×PBS. Following removal of PBS, 40 μL of 1× Lysis Buffer containing 1× protease and phosphatase inhibitors (Roche 4693116001; Roche 4906837001) were added to each well. The cell assay plate was agitated on a plate shaker at 350 rpm for 10 minutes at room temperature. 10 μL of each cell lysate were transferred to a 384-well plate (PerkinElmer 6007290). 10 μL of control lysates (from PerkinElmer ALSU-TCDK2-A10K kit) were added to separate wells to generate a standard curve. Activation Buffer was prepared by diluting 25-fold in combined Reaction Buffer 1 and Reaction Buffer 2. Acceptor Beads were diluted 50-fold in combined Reaction Buffers. 5 μL of Acceptor Mix were added to each well. The plate was sealed with Topseal-Aadhesive film, covered with foil, and incubated in the dark for 1 hour at room temperature. Under subdued light, the Donor Beads were diluted 50-fold in Dilution Buffer. 5 μL of Donor Mix were added to each well under subdued light. The plate was sealed with Topseal-A adhesive film, covered with foil, and incubated in the dark for 1 hour at room temperature. Under subdued light, the plates were analyzed on an EnVision Microplate Reader (PerkinElmer Model 2009-0030). The average signal from ‘no cell’ wells was subtracted from the signal in experimental wells prior to calculating Alpha signal for test compounds and negative control (0.100 DMSO). The data were analyzed using Xlfit (v5.3. 1.3) and the dose-dependent CDK2 degradation data were fit using a four-parameter logistic model to calculate DC50.
(In general: Alpha assays give light when donor and acceptor beads are brought close together.)

As to `Cc1cc(S(=O)(=O)C2CCN(CCCN3CCN(c4cccc5c4n(C)c(=O)n5C4CCC(=O)NC4=O)CC3)CC2)ccc1Nc1ncc2cc(Cl)c(=O)n(C(C)C)c2n1` (stereo not drawn) [I-47], for the setting “14 h incubation”, the “CDK2 degradation 14 h: Average Dmax %” value was “A (A (>75% o))” and the DC50 – broadly, the concentration giving 50% degradation – was below 100 nM.
Turning to `Cc1cc(S(=O)(=O)C2CCN(C(=O)CN3CCN(c4cccc5c4n(C)c(=O)n5C4CCC(=O)NC4=O)CC3)CC2)ccc1Nc1ncc2cc(Cl)c(=O)n(C3CCCC3)c2n1` (stereo not drawn) [I-48], under “14 h incubation”, the “CDK2 degradation 14 h: Average Dmax %” value is given as “B (B (>50% -75%))” and the DC50 is below 100 nM.
In the case of `Cc1cc(S(=O)(=O)C2CCN(CCN3CCN(c4cccc5c4n(C)c(=O)n5C4CCC(=O)NC4=O)CC3)CC2)ccc1Nc1ncc2c(n1)N(C1CCCC1)C(=O)C21CC1` (stereo not drawn) [I-50, 3-[4-[4-[2-[4-[4-[(7′-Cyclopentyl-6′-oxo-spiro[cyclopropane-1,5′-pyrrolo[2,3-d]pyrimidine]-2′-yl)amino]-3-methyl-phenyl]sulfonyl-1-piperidyl]ethyl]piperazin-1-yl]-3-methyl-2-oxo-benzimidazol-1-yl]piperidine-2,6-dione], the DC50 (14 h incubation) was below 100 nM. Further, the Dmax – broadly, the largest share of the target that was removed – (MKN-1, 14 h incubation) was above 75%.
Take `Cc1cc(S(=O)(=O)C2CCN(C3CC4(CCN(c5cccc6c5n(C)c(=O)n6C5CCC(=O)NC5=O)CC4)C3)CC2)ccc1Nc1ncc2c(n1)N(C1CCCC1)C(=O)C21CC1` (stereo not drawn) [I-52]: for the setting “14 h incubation”, the “CDK2 degradation 14 h: Average Dmax %” value is listed as “B (B (>50% -75%))” and the DC50 was 100 to 500 nM.
The matching figures for `Cc1cc(S(=O)(=O)[C@H]2CC[C@H](CN(C)C3CCN(c4cccc5c4n(C)c(=O)n5C4CCC(=O)NC4=O)CC3)CC2)ccc1Nc1ncc2c(n1)N(C1CCCC1)C(=O)C21CC1` (stereo partly drawn) [I-53]: “A (A (>75% o))” and below 100 nM.
For the compound `Cc1cc(S(=O)(=O)C2CC3(CCN(CC4CCN(c5ccc6c(c5)n(C)c(=O)n6C5CCC(=O)NC5=O)CC4)CC3)C2)ccc1Nc1ncc2cc(Cl)c(=O)n(C3CCCC3)c2n1` (stereo not drawn) [I-57], where the note is “14 h incubation”, the “CDK2 degradation 14 h: Average Dmax %” value is listed as “A (A (>75% o))” and the DC50 is below 100 nM.
The matching figures for `Cc1cc(S(=O)(=O)C2CC3(CCN(CC4CCN(c5cccc6c5n(C)c(=O)n6C5CCC(=O)NC5=O)CC4)CC3)C2)ccc1Nc1ncc2cc(Cl)c(=O)n(C3CCCC3)c2n1` (stereo not drawn) [I-58]: “A (A (>75% o))” and below 100 nM.
As to `Cc1cc(S(=O)(=O)C2CCN(CCC3CCN(c4cccc5c4n(C)c(=O)n5C4CCC(=O)NC4=O)CC3)CC2)ccc1Nc1ncc2cc(Cl)c(=O)n(C3CCCC34CC4)c2n1` (stereo not drawn) [I-59], for the setting “14 h incubation”, the “CDK2 degradation 14 h: Average Dmax %” value is given as “A (A (>75% o))” and the DC50 is below 100 nM.
The matching figures for `Cc1cc(S(=O)(=O)C2CCC(CN(C)C3CCN(c4cccc5c4n(C)c(=O)n5C4CCC(=O)NC4=O)CC3)CC2)ccc1Nc1ncc2cc(Cl)c(=O)n(C3CCCC34CC4)c2n1` (stereo not drawn) [I-60]: “A (A (>75% o))” and below 100 nM.
Regarding `Cc1cc(S(=O)(=O)C2CCN(CCN3CCN(c4cccc5c4n(C)c(=O)n5C4CCC(=O)NC4=O)CC3)CC2)ccc1Nc1ncc(C(F)(F)F)c(-c2cnn(C)c2)n1` (stereo not drawn) [I-61], under “14 h incubation”, the “CDK2 degradation 14 h: Average Dmax %” value is on record as “A (A (>75% o))” and the DC50 was below 100 nM.
The matching figures for `Cc1cc(S(=O)(=O)[C@H]2CC[C@H](CN(C)C3CCN(c4cccc5c4n(C)c(=O)n5C4CCC(=O)NC4=O)CC3)CC2)ccc1Nc1ncc2ccc(=O)n(C3CCCC3)c2n1` (stereo partly drawn) [I-63]: “A (A (>75% o))” and below 100 nM.
With `Cc1cc(S(=O)(=O)C2CCN(CCN3CCN(c4cccc5c4n(C)c(=O)n5C4CCC(=O)NC4=O)CC3)CC2)ccc1Nc1ncc2cc(Cl)c(=O)n(C3CCCC3)c2n1` (stereo not drawn) [I-64], under “14 h incubation”, the “CDK2 degradation 14 h: Average Dmax %” value is “A (A (>75% o))” and the DC50 is below 100 nM.
The matching figures for `Cc1cc(S(=O)(=O)C(C)(C)CCO[C@H]2CC[C@H](CN3CCC(c4ccc5c(c4)n(C)c(=O)n5C4CCC(=O)NC4=O)CC3)CC2)ccc1Nc1ncc2cc(Cl)c(=O)n(C3CCCC3)c2n1` (stereo partly drawn) [I-65]: “A (A (>75% o))” and below 100 nM.
For the compound `Cc1cc(S(=O)(=O)C2CCC3(CC2)CN(CC2CCN(c4cccc5c4n(C)c(=O)n5C4CCC(=O)NC4=O)CC2)C3)ccc1Nc1ncc2cc(Cl)c(=O)n(C3CCCC3)c2n1` (stereo not drawn) [I-66], under “14 h incubation”, the “CDK2 degradation 14 h: Average Dmax %” value was “A (A (>75% o))” and the DC50 lay within 100 to 500 nM.
Regarding `Cc1cc(S(=O)(=O)C2CCC3(CC2)CN(CC2CCN(c4ccc5c(c4)n(C)c(=O)n5C4CCC(=O)NC4=O)CC2)C3)ccc1Nc1ncc2cc(Cl)c(=O)n(C3CCCC3)c2n1` (stereo not drawn) [I-67], under “14 h incubation”, the “CDK2 degradation 14 h: Average Dmax %” value is reported as “A (A (>75% o))” and the DC50 was in the range of 100 to 500 nM.
Turning to `Cc1cc(S(=O)(=O)CCCO[C@H]2CC[C@H](CN3CCC(c4ccc5c(c4)n(C)c(=O)n5C4CCC(=O)NC4=O)CC3)CC2)ccc1Nc1ncc(C(F)(F)F)c(-c2cnn(C)c2)n1` (stereo partly drawn) [I-68], the DC50 (14 h incubation) is below 100 nM.
Regarding `Cc1cc(S(=O)(=O)C2CC3(CCN(CC4CCN(c5cc(F)cc(NC6CCC(=O)NC6=O)c5)CC4)CC3)C2)ccc1Nc1ncc2cc(Cl)c(=O)n(C3CCCC3)c2n1` (stereo not drawn) [I-69], where the note is “14 h incubation”, the “CDK2 degradation 14 h: Average Dmax %” value is reported as “A (A (>75% o))” and the DC50 was 100 to 500 nM.
For `Cc1cc(S(=O)(=O)C2CC3(CCN(CC4CCN(c5ccc(F)c(NC6CCC(=O)NC6=O)c5)CC4)CC3)C2)ccc1Nc1ncc2cc(Cl)c(=O)n(C3CCCC3)c2n1` (stereo not drawn) [I-70], for the setting “14 h incubation”, the “CDK2 degradation 14 h: Average Dmax %” value is “B (B (>50% -75%))” and the DC50 was above 1000 nM.
Take `Cc1cc(S(=O)(=O)C2CC3(CCN(CC4CCN(c5cccc(NC6CCC(=O)NC6=O)c5F)CC4)CC3)C2)ccc1Nc1ncc2cc(Cl)c(=O)n(C3CCCC3)c2n1` (stereo not drawn) [I-71]: under “14 h incubation”, the “CDK2 degradation 14 h: Average Dmax %” value was “A (A (>75% o))” and the DC50 was 100 to 500 nM.
Taken in the same sequence, the figures for `COc1cc(N2CCC(CN3CCC4(CC3)CC(S(=O)(=O)c3ccc(Nc5ncc6cc(Cl)c(=O)n(C7CCCC7)c6n5)c(C)c3)C4)CC2)ccc1NC1CCC(=O)NC1=O` (stereo not drawn) [I-72] were “A (A (>75% o))” and 100 to 500 nM.
The matching figures for `Cc1cc(S(=O)(=O)C2CC3(CCN(CC4CCN(c5ccc(OC6CCC(=O)NC6=O)cc5)CC4)CC3)C2)ccc1Nc1ncc2cc(Cl)c(=O)n(C3CCCC3)c2n1` (stereo not drawn) [I-73]: “A (A (>75% o))” and below 100 nM.
Taken in the same sequence, the figures for `Cc1cc(S(=O)(=O)C2CC3(CCN(CC4CCN(c5cccc(OC6CCC(=O)NC6=O)c5)CC4)CC3)C2)ccc1Nc1ncc2cc(Cl)c(=O)n(C3CCCC3)c2n1` (stereo not drawn) [I-74] were “A (A (>75% o))” and 100 to 500 nM.
For the compound `Cc1cc(S(=O)(=O)C2CC3(CCN(CC4CCN(c5ccc(NC6CCC(=O)NC6=O)cc5C)CC4)CC3)C2)ccc1Nc1ncc2cc(Cl)c(=O)n(C3CCCC3)c2n1` (stereo not drawn) [I-75], for the setting “14 h incubation”, the “CDK2 degradation 14 h: Average Dmax %” value is recorded as “B (B (>50% -75%))” and the DC50 was 100 to 500 nM.
Taken in the same sequence, the figures for `Cc1cc(S(=O)(=O)C2CC3(CCN(CC4CCN(c5ccc(NC6CCC(=O)NC6=O)c(C)c5)CC4)CC3)C2)ccc1Nc1ncc2cc(Cl)c(=O)n(C3CCCC3)c2n1` (stereo not drawn) [I-76] were “B (B (>50% -75%))” and 500 to 1000 nM.
The matching figures for `COc1cc(NC2CCC(=O)NC2=O)ccc1N1CCC(CN2CCC3(CC2)CC(S(=O)(=O)c2ccc(Nc4ncc5cc(Cl)c(=O)n(C6CCCC6)c5n4)c(C)c2)C3)CC1` (stereo not drawn) [I-77]: “A (A (>75% o))” and below 100 nM.
Taken in the same sequence, the figures for `Cc1cc(S(=O)(=O)C2CC3(CCN(CC4CCN(c5cccc(N6CCC(=O)NC6=O)c5)CC4)CC3)C2)ccc1Nc1ncc2cc(Cl)c(=O)n(C3CCCC3)c2n1` [I-78] were “D (D (<25%))” and above 1000 nM.
As to `Cc1cc(S(=O)(=O)C2CC3(CCN(CC4CCN(c5ccc(N6CCC(=O)NC6=O)cc5)CC4)CC3)C2)ccc1Nc1ncc2cc(Cl)c(=O)n(C3CCCC3)c2n1` [I-79], under “14 h incubation”, the “CDK2 degradation 14 h: Average Dmax %” value is “B (B (>50% -75%))” and the DC50 lay in the range of 100 to 500 nM.
In the case of `Cc1cc(S(=O)(=O)C2CC3(CCN(CC4CCN(c5cccc(C6CCC(=O)NC6=O)c5)CC4)CC3)C2)ccc1Nc1ncc2cc(Cl)c(=O)n(C3CCCC3)c2n1` (stereo not drawn) [I-80], for the setting “14 h incubation”, the “CDK2 degradation 14 h: Average Dmax %” value was “C (C (>25% -50%))” and the “CDK2 degradation 14 h: Mean external-Abs DC50 (nM)” value is “E”.
Take `Cc1cc(S(=O)(=O)C2CC3(CCN(CC4CCN(c5ccc(C6CCC(=O)NC6=O)cc5)CC4)CC3)C2)ccc1Nc1ncc2cc(Cl)c(=O)n(C3CCCC3)c2n1` (stereo not drawn) [I-81]: for the setting “14 h incubation”, the “CDK2 degradation 14 h: Average Dmax %” value was “A (A (>75% o))” and the DC50 is below 100 nM.
